Test results: ChEMBL document CHEMBL5543151, “Rational Design of a Novel Class of Human ClpP Agonists through a Ring-Opening Strategy with Enhanced Antileukemia Activity” (J Med Chem, 2024)

What was measured:
[1] = Acute toxicity in BALB/c mouse assessed as ALB2 biochemical parameter at 25 to 100 mg/kg, ip measured for 2 weeks; format: organism-based; details: in vivo, 336 h, dose 25-100 mg/kg
[2] = Acute toxicity in BALB/c mouse assessed as ALP2L biochemical parameter at 25 to 100 mg/kg, ip measured for 2 weeks; format: organism-based; details: in vivo, 336 h, dose 25-100 mg/kg
[3] = Acute toxicity in BALB/c mouse assessed as ALTL biochemical parameter at 25 to 100 mg/kg, ip measured for 2 weeks; format: organism-based; details: in vivo, 336 h, dose 25-100 mg/kg
[4] = Acute toxicity in BALB/c mouse assessed as ASTL biochemical parameter at 25 to 100 mg/kg, ip measured for 2 weeks; format: organism-based; details: in vivo, 336 h, dose 25-100 mg/kg
[5] = Acute toxicity in BALB/c mouse assessed as CREJ2 biochemical parameter at 25 to 100 mg/kg, ip measured for 2 weeks; format: organism-based; details: in vivo, 336 h, dose 25-100 mg/kg
[6] = Acute toxicity in BALB/c mouse assessed as LDHI2 biochemical parameter at 25 to 100 mg/kg, ip measured for 2 weeks; format: organism-based; details: in vivo, 336 h, dose 25-100 mg/kg
[7] = Acute toxicity in BALB/c mouse assessed as vTP2 biochemical parameter at 25 to 100 mg/kg, ip measured for 2 weeks; format: organism-based; details: in vivo, 336 h, dose 25-100 mg/kg
[8] = Acute toxicity in BALB/c mouse assessed as TRIGL biochemical parameter at 25 to 100 mg/kg, ip measured for 2 weeks; format: organism-based; details: in vivo, 336 h, dose 25-100 mg/kg
[9] = Acute toxicity in BALB/c mouse assessed as UA2 biochemical parameter at 25 to 100 mg/kg, ip measured for 2 weeks; format: organism-based; details: in vivo, 336 h, dose 25-100 mg/kg
[10] = Acute toxicity in BALB/c mouse assessed as UREAL biochemical parameter at 25 to 100 mg/kg, ip measured for 2 weeks; format: organism-based; details: in vivo, 336 h, dose 25-100 mg/kg
[11] = Acute toxicity in BALB/c mouse assessed as adverse effect at 25 to 100 mg/kg, ip measured for 2 weeks; format: organism-based; details: in vivo, 336 h, dose 25-100 mg/kg
[12] = Acute toxicity in BALB/c mouse assessed as pathological changes in heart at 25 to 100 mg/kg, ip measured for 2 weeks by hematoxylin and eosin staining based assay; format: organism-based; details: in vivo, 336 h, dose 25-100 mg/kg
[13] = Acute toxicity in BALB/c mouse assessed as pathological changes in liver at 25 to 100 mg/kg, ip measured for 2 weeks by hematoxylin and eosin staining based assay; format: organism-based; details: in vivo, 336 h, dose 25-100 mg/kg
[14] = Acute toxicity in BALB/c mouse assessed as pathological changes in spleen at 25 to 100 mg/kg, ip measured for 2 weeks by hematoxylin and eosin staining based assay; format: organism-based; details: in vivo, 336 h, dose 25-100 mg/kg
[15] = Acute toxicity in BALB/c mouse assessed as pathological changes in lung at 25 to 100 mg/kg, ip measured for 2 weeks by hematoxylin and eosin staining based assay; format: organism-based; details: in vivo, 336 h, dose 25-100 mg/kg
[16] = Acute toxicity in BALB/c mouse assessed as pathological changes in kidney at 25 to 100 mg/kg, ip measured for 2 weeks by hematoxylin and eosin staining based assay; format: organism-based; details: in vivo, 336 h, dose 25-100 mg/kg
MV4-11 [17] = test: In vivo anti-leukemia activity against human MV4-11 cells transplanted in BALB/c nude mouse assessed as reduction in tumor volume at 2.5 mg/kg, ip twice weekly treatment started 7 th day of cell inoculum till 18 th day; format: functional; set-up: scale not given: the % may be the effect or the level left; details: time 11 day
MV4-11 [18] = test: In vivo anti-leukemia activity against human MV4-11 cells transplanted in BALB/c nude mouse assessed as reduction in tumor weight at 2.5 mg/kg, ip twice weekly treatment started 7 th day of cell inoculum till 18 th day; format: functional; set-up: scale not given: the % may be the effect or the level left; details: time 11 day
MV4-11 [19] = test: In vivo anti-leukemia activity against human MV4-11 cells transplanted in BALB/c nude mouse assessed as reduction in tumor volume at 5 mg/kg, ip twice weekly treatment started 7 th day of cell inoculum till 18 th day; format: functional; set-up: scale not given: the % may be the effect or the level left; details: time 11 day
MV4-11 [20] = test: In vivo anti-leukemia activity against human MV4-11 cells transplanted in BALB/c nude mouse assessed as reduction in tumor weight at 5 mg/kg, ip twice weekly treatment started 7 th day of cell inoculum till 18 th day; format: functional; set-up: scale not given: the % may be the effect or the level left; details: time 11 day
MV4-11 [21] = test: In vivo anti-leukemia activity against human MV4-11 cells transplanted in BALB/c nude mouse assessed as reduction in tumor volume at 10 mg/kg, ip twice weekly treatment started 7 th day of cell inoculum till 18 th day; format: functional; set-up: scale not given: the % may be the effect or the level left; details: time 11 day
MV4-11 [22] = test: In vivo anti-leukemia activity against human MV4-11 cells transplanted in BALB/c nude mouse assessed as reduction in tumor weight at 10 mg/kg, ip twice weekly treatment started 7 th day of cell inoculum till 18 th day; format: functional; set-up: scale not given: the % may be the effect or the level left; details: time 11 day
[23] = Toxicity in BALB/c nude mouse transplanted with human MV4-11 cells assessed as change in body weight at 2.5 to 10 mg/kg, ip measured for 17 days; format: organism-based; details: in vivo, 408 h, dose 2.5-10 mg/kg, time 17 day
[24] = Toxicity in BALB/c nude mouse transplanted with human MV4-11 cells assessed as pathological damage in heart at 2.5 to 10 mg/kg, ip measured for 17 days by hematoxylin and eosin staining based assay; format: organism-based; details: in vivo, 408 h, dose 2.5-10 mg/kg, time 17 day
[25] = Toxicity in BALB/c nude mouse transplanted with human MV4-11 cells assessed as pathological damage in liver at 2.5 to 10 mg/kg, ip measured for 17 days by hematoxylin and eosin staining based assay; format: organism-based; details: in vivo, 408 h, dose 2.5-10 mg/kg, time 17 day
[26] = Toxicity in BALB/c nude mouse transplanted with human MV4-11 cells assessed as pathological damage in spleen at 2.5 to 10 mg/kg, ip measured for 17 days by hematoxylin and eosin staining based assay; format: organism-based; details: in vivo, 408 h, dose 2.5-10 mg/kg, time 17 day
[27] = Toxicity in BALB/c nude mouse transplanted with human MV4-11 cells assessed as pathological damage in lung at 2.5 to 10 mg/kg, ip measured for 17 days by hematoxylin and eosin staining based assay; format: organism-based; details: in vivo, 408 h, dose 2.5-10 mg/kg, time 17 day
[28] = Toxicity in BALB/c nude mouse transplanted with human MV4-11 cells assessed as pathological damage in kidney at 2.5 to 10 mg/kg, ip measured for 17 days by hematoxylin and eosin staining based assay; format: organism-based; details: in vivo, 408 h, dose 2.5-10 mg/kg, time 17 day
[29] = Cmax in Sprague-Dawley rat at 5 mg/kg, iv measured upto 12 hrs by LC-MS analysis; format: ADME, organism-based; details: in vivo
[30] = AUC(0 to 12hrs) in Sprague-Dawley rat at 5 mg/kg, iv measured upto 12 hrs by LC-MS analysis; format: ADME, organism-based; details: in vivo
[31] = Half life in Sprague-Dawley rat at 5 mg/kg, iv measured upto 12 hrs by LC-MS analysis; format: ADME, organism-based; details: in vivo
[32] = Clearance in Sprague-Dawley rat at 5 mg/kg, iv measured upto 12 hrs by LC-MS analysis; format: ADME, organism-based; details: in vivo
[33] = MRT (0 to 12hrs) in Sprague-Dawley rat at 5 mg/kg, iv measured upto 12 hrs by LC-MS analysis; format: ADME, organism-based; details: in vivo
[34] = Bioavailability in Sprague-Dawley rat at 5 mg/kg, iv measured upto 12 hrs by LC-MS analysis; format: ADME, organism-based; details: in vivo
[35] = Cmax in Sprague-Dawley rat at 15 mg/kg, po measured upto 12 hrs by LC-MS analysis; format: ADME, organism-based; details: in vivo
[36] = Tmax in Sprague-Dawley rat at 15 mg/kg, po measured upto 12 hrs by LC-MS analysis; format: ADME, organism-based; details: in vivo
[37] = AUC(0 to 12hrs) in Sprague-Dawley rat at 15 mg/kg, po measured upto 12 hrs by LC-MS analysis; format: ADME, organism-based; details: in vivo
[38] = Half life in Sprague-Dawley rat at 15 mg/kg, po measured upto 12 hrs by LC-MS analysis; format: ADME, organism-based; details: in vivo
[39] = MRT (0 to 12hrs) in Sprague-Dawley rat at 15 mg/kg, po measured upto 12 hrs by LC-MS analysis; format: ADME, organism-based; details: in vivo
MV4-11 [40] = test: Anti-leukemia activity against human MV4-11 cells assessed as decrease in cell proliferation incubated for 72 hrs by CCK-8 assay; format: functional, cell-based; details: MV4-11, 72 h
MV4-11 [41] = test: Potency index, ratio of ONC201 IC50 to test compound IC50 for anti-leukemia activity against human MV4-11 cells assessed as decrease in cell proliferation incubated for 72 hrs by CCK-8 assay; format: functional
[42] = target: T1, ATP-dependent Clp protease proteolytic subunit, mitochondrial (Homo sapiens, UniProt Q16740); test: Agonist activity at human Casein lysing protease P (HsClpP) assessed as proteolytic activity by measuring alpha-casein hydrolysis measured after 2 hrs incubation by fluorescence assay
[43] = target: T1, ATP-dependent Clp protease proteolytic subunit, mitochondrial; test: Binding affinity to human Casein lysing protease P (HsClpP) assessed as change in melting temperature measured after 2 hrs differential scanning fluorimetry (DSF) assay
MV4-11 [44] = test: Anti-leukemia activity against human MV4-11 cells assessed as decrease in cell proliferation incubated for 24 hrs by CCK-8 assay; format: functional, cell-based; details: MV4-11, 24 h
MV4-11 [45] = test: Anti-leukemia activity against human MV4-11 cells assessed as decrease in cell proliferation incubated for 48 hrs by CCK-8 assay; format: functional, cell-based; details: MV4-11, 48 h
MOLM-13 = test: Anti-leukemia activity against human MOLM-13 cells assessed as decrease in cell proliferation incubated for 72 hrs by CCK-8 assay; format: functional, cell-based; details: MOLM-13, 72 h
U-937 = test: Anti-leukemia activity against human U-937 cells assessed as decrease in cell proliferation incubated for 72 hrs by CCK-8 assay; format: functional, cell-based; details: U-937, 72 h
OCI-AML2 = test: Anti-leukemia activity against human OCI-AML2 cells assessed as decrease in cell proliferation incubated for 72 hrs by CCK-8 assay; format: functional, cell-based; details: OCI-AML2, 72 h
THP-1 = test: Anti-leukemia activity against human THP-1 cells assessed as decrease in cell proliferation incubated for 72 hrs by CCK-8 assay; format: functional, cell-based; details: THP-1, 72 h
HL-60 = test: Anti-leukemia activity against human HL-60 cells assessed as decrease in cell proliferation incubated for 72 hrs by CCK-8 assay; format: functional, cell-based; details: HL-60, 72 h
Kasumi 1 = test: Anti-leukemia activity against human Kasumi 1 cells assessed as decrease in cell proliferation incubated for 72 hrs by CCK-8 assay; format: functional, cell-based; details: Kasumi 1, 72 h
K562 = test: Anti-leukemia activity against human K562 cells assessed as decrease in cell proliferation incubated for 72 hrs by CCK-8 assay; format: functional, cell-based; details: K562, 72 h
MV4-11 [46] = test: Induction of apoptosis in human MV4-11 cells assessed as increase in apoptotic (annexin V-positive) cell proportions by measuring apoptotic rate at 120 nM measured after 48 hrs by Annexin V-647/P1 apoptosis detection assay relative to control; format: functional

T1 sequence (Q16740 whole entry): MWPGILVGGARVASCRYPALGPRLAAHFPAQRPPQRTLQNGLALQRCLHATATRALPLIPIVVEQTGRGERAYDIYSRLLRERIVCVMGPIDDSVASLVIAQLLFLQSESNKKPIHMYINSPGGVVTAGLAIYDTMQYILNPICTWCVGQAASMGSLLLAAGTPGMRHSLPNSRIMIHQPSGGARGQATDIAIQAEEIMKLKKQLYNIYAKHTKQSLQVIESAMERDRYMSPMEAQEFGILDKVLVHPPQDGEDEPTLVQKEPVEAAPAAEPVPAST

Compound: Cl.N#Cc1cccc(CN2CCc3[nH]c(NCc4ccc(F)cc4)nc(=O)c3C2)c1
- Activity [1]: Non-Toxic
- Activity [2]: Non-Toxic
- Activity [3]: Non-Toxic
- Activity [4]: Non-Toxic
- Activity [5]: Non-Toxic
- Activity [6]: Non-Toxic
- Activity [7]: Non-Toxic
- Activity [8]: Non-Toxic
- Activity [9]: Non-Toxic
- Activity [10]: Non-Toxic
- Activity [11]: Non-Toxic
- Activity [12]: Non-Toxic
- Activity [13]: Non-Toxic
- Activity [14]: Non-Toxic
- Activity [15]: Non-Toxic
- Activity [16]: Non-Toxic
- Activity (MV4-11 [17]): 20.52%
- Activity (MV4-11 [18]): 20.35%
- Activity (MV4-11 [19]): 75.3%
- Activity (MV4-11 [20]): 67%
- Activity (MV4-11 [21]): 88.29%
- Activity (MV4-11 [22]): 88.88%
- Activity [23]: Non-Toxic
- Activity [24]: Non-Toxic
- Activity [25]: Non-Toxic
- Activity [26]: Non-Toxic
- Activity [27]: Non-Toxic
- Activity [28]: Non-Toxic
- Cmax [29]: 869 ng/mL
- AUC(0-t) at 12 h [30]: 791 ng·h/mL
- half-life [31]: 4.9 h
- clearance [32]: 58.3 mL/min/kg
- MRT last at 12 h [33]: 2.8 h
- bioavailability [34]: 32.7%
- Cmax [35]: 332 ng/mL
- Tmax [36]: 1 h
- AUC(0-t) at 12 h [37]: 780 ng·h/mL
- half-life [38]: 3.9 h
- MRT last at 12 h [39]: 2.4 h

Compound: N#Cc1cccc(CN2CCc3[nH]c(NCc4ccc(F)cc4)nc(=O)c3C2)c1
- IC50 (MV4-11 [40]): 30 nM
- Ratio IC50 (MV4-11 [41]): 20
- EC50 [42]: 970 nM
- EC50 [43]: 1370 nM
- EC50 (MV4-11 [44]): 5200 nM
- EC50 (MV4-11 [45]): 78 nM
- IC50 (MOLM-13): 30.1 nM
- IC50 (U-937): 78.2 nM
- IC50 (OCI-AML2): 39.2 nM
- IC50 (THP-1): 79.7 nM
- IC50 (HL-60): 40.5 nM
- IC50 (Kasumi 1): 41.1 nM
- IC50 (K562): 132 nM
- Activity (MV4-11 [46]): ~80%
